Structures can show the parent of a compound that is named as a salt.
Test: Solubility of crystalline forms
Format: physicochemical
Source text: wherein R^1-R^4, P, X, Y, m, n and Ar are as defined therein. One such compound is N-(3,5-dichloropyrid-4-yl)-4-difluoromethoxy-8-methanesulfonamido-dibenzo[b,d]furan-1-carboxamide, the International nonproprietary name for which is oglemilast. The pharmacology and safety profiles for oglemilast have been described in, for example, Eur. Respir. J. (2004) 24 (Suppl 48): Abst 1391. Both US 2005/0027129 and International Publication No. WO 2006/040652 disclose methods for preparing oglemilast and pharmaceutically acceptable salts thereof, such as the sodium salt (see, e.g., Examples 30 and 31 of US publication No. 2005/0027129) and generically disclose formulations of oglemilast and the corresponding sodium salt. In these formulations, the active ingredient is present substantially in a crystalline form. […] In an attempt to increase the bioavailability of formulations containing, e.g., oglemilast, salt forms of the active ingredient have typically been used.

| solubility | SMILES |
| --- | --- |
| approximately 0.2 μg/mL | CS(=O)(=O)Nc1ccc2oc3c(OC(F)F)ccc(C(=O)Nc4c(Cl)cncc4Cl)c3c2c1 [crystalline oglemilast, N-(3,5-dichloropyrid-4-yl)-4-difluoromethoxy-8-methanesulfonamido-dibenzo[b,d]furan-1-carboxamide] |
| approximately 140 μg/mL | CS(=O)(=O)Nc1ccc2oc3c(OC(F)F)ccc(C(=O)Nc4c(Cl)cncc4Cl)c3c2c1 [crystalline sodium salt of oglemilast] |

Source: patent US20080194638A1, “BIOAVAILABLE FORMULATIONS OF HETEROCYCLIC COMPOUNDS” (Forest Laboratories Holdings Limited, priority 2007, published 2008)
